Test results from patent US20100069436A1, “IMIDAZOLE COMPOUNDS HAVING AN ANTIINFLAMMATORY EFFECT” (Merckle, priority 2006, published 2010).

molecular target: p38α MAP kinase (Homo sapiens, UniProt Q16539); assay: Assay to determine the inhibition of p38α MAP kinase (phosphorylation of ATF-2, IC50-values); type: biochemical; conditions: ATF-2 coated microtiter plates, 10 ng activated p38α, 100 μM ATP, 1 h at 37° C.; read-out: IC50, inhibition of the phosphorylation of ATF-2 by p38a MAP kinase
Experimental: Assay to determine the inhibition of p38α MAP kinase (IC50-values)
Microtiter plates were coated with the p38 MAP kinase substrate ATF-2 by incubating 50 μl of 20 μg/ml ATF-2 for one hour at 37° C. After the plates were washed three times with water, 50 μl of kinase mixture (=50 mM Tris-HCl, 10 mM MgCl2, 10 mM β-glycerol phosphate, 10 μg/ml BSA, 1 mM DTT, 100 μM ATP, 100 μM […], 10 ng activated p38α) without an with increasing inhibitor concentrations were added into the wells and incubated for one hour at 37° C. The plates were washed three times with water and incubated with an anti-phospho-ATF-2 antibody for one hour at 37°. Thereafter, the plates were again washed three times with water and incubated with a goat, alkaline phosphatase-labeled anti-rabbit IgG, for one hour at 37° C. The plates were washed and incubated with 100 μl of a solution containing the phosphatase substrate 4-nitrophenolphosphate (3 mM 4-NPP, 50 mM NaHCO3, 50 mM MgCl2) for 1.5 hours at 37° C. Formation of 4-nitrophenolate was measured at 405 nm using a microtiter plate reader. Based on the inhibitor-concentration/response curves, IC50-values were determined.

Chain of p38α MAP kinase (Q16539 whole entry): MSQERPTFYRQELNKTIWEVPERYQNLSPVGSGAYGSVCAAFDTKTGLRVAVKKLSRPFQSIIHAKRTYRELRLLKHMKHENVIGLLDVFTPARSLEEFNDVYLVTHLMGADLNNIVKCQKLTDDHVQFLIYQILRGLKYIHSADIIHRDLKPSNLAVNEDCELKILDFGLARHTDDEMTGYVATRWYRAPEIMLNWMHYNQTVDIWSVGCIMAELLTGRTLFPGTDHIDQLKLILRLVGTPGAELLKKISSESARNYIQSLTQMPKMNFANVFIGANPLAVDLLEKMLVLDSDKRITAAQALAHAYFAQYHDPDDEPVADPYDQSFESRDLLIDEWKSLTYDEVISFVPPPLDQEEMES

First: COCCn1c(SC)nc(-c2ccc(F)cc2)c1-c1ccnc(NCC2CCCCC2O)c1 (centres unmarked) [35 (1)]
Second: COCCn1c(SC)nc(-c2ccc(F)cc2)c1-c1ccnc(NC2CCCCC2O)c1 (centres unmarked) [Example 19, 2-{4-[5-(4-Fluoro-phenyl)-3-(2-methoxy-ethyl)-2-methylsulfanyl-3H-imidazol-4-yl]-pyridin-2-ylamino}-cyclohexanol]
The IC50 of the first is lower: under 1000 nM for the first, 1000 to 10000 nM for the second.

Compared with `COCCn1c(S(C)(=O)=O)nc(-c2ccc(F)cc2)c1-c1ccnc(NC2CCCCC2O)c1` (centres unmarked) [35 (4)], `COCCn1c(SC)nc(-c2ccc(F)cc2)c1-c1ccnc(NC2CCCCC2O)c1` (centres unmarked) [Example 35 (2)] is lower in IC50: 1000 to 10000 nM for the first, under 1000 nM for the second.

Compared with `CCN1CCCC1CNc1cc(-c2c(-c3ccc(F)cc3)nc(SC)n2C)ccn1` (centres unmarked) [Example 1, (1-Ethyl-pyrrolidin-2-ylmethyl)-{4-[5-(4-fluoro-phenyl)-3-methyl-2-methylsulfanyl-3H-imidazol-4-yl]-pyridin-2-yl}-amine], `CCN1CCCC1CNc1cc(-c2c(-c3ccc(F)cc3)nc(SC)n2CCOC)ccn1` (centres unmarked) [Example 2] is lower in IC50: over 10000 nM for the first, under 1000 nM for the second.

First: CSc1nc(-c2ccc(F)cc2)c(-c2ccnc(NC3CC(C)(C)NC(C)(C)C3)c2)n1C [Example 3]
Second: COCCn1c(SC)nc(-c2ccc(F)cc2)c1-c1ccnc(NC2CC(C)(C)NC(C)(C)C2)c1 [Example 4, {4-[5-(4-Fluoro-phenyl)-3-(2-methoxy-ethyl)-2-methylsulfanyl-3H-imidazol-4-yl]-pyridin-2-yl}-(2,2,6,6-tetramethyl-piperidin-4-yl)-amine]
The IC50 of the first is higher: 1000 to 10000 nM for the first, under 1000 nM for the second.

`CSc1nc(-c2ccc(F)cc2)c(-c2ccnc(NC3CCN(Cc4ccccc4)CC3)c2)n1C` [Example 5, (1-Benzyl-piperidin-4-yl)-{4-[5-(4-fluoro-phenyl)-3-methyl-2-methylsulfanyl-3H-imidazol-4-yl]-pyridin-2-yl}-amine] and `COCCn1c(SC)nc(-c2ccc(F)cc2)c1-c1ccnc(NC2CCN(Cc3ccccc3)CC2)c1` [Example 6, (1-Benzyl-piperidin-4-yl)-{4-[5-(4-fluoro-phenyl)-3-(2-methoxy-ethyl)-2-methylsulfanyl-3H-imidazol-4-yl]-pyridin-2-yl}-amine] fall in the same range of IC50: 1000 to 10000 nM for the first, 1000 to 10000 nM for the second.

`CCN1CCCC1CNc1cc(-c2c(-c3ccc(F)cc3)nc([S+](C)[O-])n2C)ccn1` (centres unmarked) [Example 7, (1-Ethyl-pyrrolidin-2-ylmethyl)-{4-[5-(4-fluoro-phenyl)-2-methanesulfinyl-3-methyl-3H-imidazol-4-yl]-pyridin-2-yl}-amine] and `CC(O)CNc1cc(-c2c(-c3ccc(F)cc3)nc([S+](C)[O-])n2C)ccn1` (centres unmarked) [Example 20, 1-{4-[5-(4-Fluoro-phenyl)-2-methanesulfinyl-3-methyl-3H-imidazol-4-yl]-pyridin-2-ylamino}-propan-2-ol] cannot be ordered by IC50: over 10000 nM for the first, over 10000 nM for the second.

`Cn1c([S+](C)[O-])nc(-c2ccc(F)cc2)c1-c1ccnc(NC2CC(C)(C)NC(C)(C)C2)c1` (centres unmarked) [Example 9, {4-[5-(4-Fluoro-phenyl)-2-methanesulfinyl-3-methyl-3H-imidazol-4-yl]-pyridin-2-yl}-(2,2,6,6-tetramethyl-piperidin-4-yl)-amine] and `COCCn1c([S+](C)[O-])nc(-c2ccc(F)cc2)c1-c1ccnc(NC2CC(C)(C)NC(C)(C)C2)c1` (centres unmarked) [Example 10] cannot be ordered by IC50: over 10000 nM for the first, over 10000 nM for the second.

First: Cn1c([S+](C)[O-])nc(-c2ccc(F)cc2)c1-c1ccnc(NC2CCN(Cc3ccccc3)CC2)c1 (centres unmarked) [Example 11, (1-Benzyl-piperidin-4-yl)-{4-[5-(4-fluoro-phenyl)-2-methanesulfinyl-3-methyl-3H-imidazol-4-yl]-pyridin-2-yl}-amine]
Second: COCCn1c([S+](C)[O-])nc(-c2ccc(F)cc2)c1-c1ccnc(NC2CCN(Cc3ccccc3)CC2)c1 (centres unmarked) [Example 12, (1-Benzyl-piperidin-4-yl)-{4-[5-(4-fluoro-phenyl)-2-methanesulfinyl-3-(2-methoxy-ethyl)-3H-imidazol-4-yl]-pyridin-2-yl}-amine]
The IC50 of the first is higher: over 10000 nM for the first, 1000 to 10000 nM for the second.

`CSc1nc(-c2ccc(F)cc2)c(-c2ccnc(NCC(C)O)c2)n1C` (centres unmarked) [Example 13, 1-{4-[5-(4-Fluoro-phenyl)-3-methyl-2-methylsulfanyl-3H-imidazol-4-yl]-pyridin-2-ylamino}-propan-2-ol] and `COCCn1c(SC)nc(-c2ccc(F)cc2)c1-c1ccnc(NCC(C)O)c1` (centres unmarked) [Example 14, 1-{4-[5-(4-Fluoro-phenyl)-3-(2-methoxy-ethyl)-2-methylsulfanyl-3H-imidazol-4-yl]-pyridin-2-ylamino}-propan-2-ol] cannot be ordered by IC50: under 1000 nM for the first, under 1000 nM for the second.

`CSc1nc(-c2ccc(F)cc2)c(-c2ccnc(NC3CCC(O)CC3)c2)n1C` (centres unmarked) [Example 15, 4-{4-[5-(4-Fluoro-phenyl)-3-methyl-2-methylsulfanyl-3H-imidazol-4-yl]-pyridin-2-ylamino}-cyclohexanol] and `COCCn1c(SC)nc(-c2ccc(F)cc2)c1-c1ccnc(NC2CCC(O)CC2)c1` (centres unmarked) [Example 16, 4-{4-[5-(4-Fluoro-phenyl)-3-(2-methoxy-ethyl)-2-methylsulfanyl-3H-imidazol-4-yl]-pyridin-2-ylamino}-cyclohexanol] cannot be ordered by IC50: under 1000 nM for the first, under 1000 nM for the second.

`CSc1nc(-c2ccc(F)cc2)c(-c2ccnc(NC3CCCCC3O)c2)n1C` (centres unmarked) [Example 17, 2-{4-[5-(4-Fluoro-phenyl)-3-methyl-2-methylsulfanyl-3H-imidazol-4-yl]-pyridin-2-ylamino}-cyclohexanol] and `Cn1c([S+](C)[O-])nc(-c2ccc(F)cc2)c1-c1ccnc(NC2CCCCC2O)c1` (centres unmarked) [Example 24, 2-{4-[5-(4-Fluoro-phenyl)-2-methanesulfinyl-3-methyl-3H-imidazol-4-yl]pyridin-2-ylamino}-cyclohexanol] fall in the same range of IC50: 1000 to 10000 nM for the first, 1000 to 10000 nM for the second.

`CSc1nc(-c2ccc(F)cc2)c(-c2ccnc(NC3CCCCC3O)c2)n1C` (centres unmarked) [Example 18, 2-{4-[5-(4-Fluoro-phenyl)-3-methyl-2-methylsulfanyl-3H-imidazol-4-yl]-pyridin-2-ylamino}-cyclohexanol] and `CSc1nc(-c2ccc(F)cc2)c(-c2ccnc(NC3CCCCC3=O)c2)n1C` (centres unmarked) [Example 28, 2-{4-[5-(4-Fluoro-phenyl)-3-methyl-2-methylsulfanyl-3H-imidazol-4-yl]-pyridin-2-ylamino}-cyclohexanone] cannot be ordered by IC50: under 1000 nM for the first, under 1000 nM for the second.

First: COCCn1c([S+](C)[O-])nc(-c2ccc(F)cc2)c1-c1ccnc(NCC(C)O)c1 (centres unmarked) [Example 21, 1-{4-[5-(4-Fluoro-phenyl)-2-methanesulfinyl-3-(2-methoxy-ethyl)-3H-imidazol-4-yl]-pyridin-2-ylamino}-propan-2-ol]
Second: COCCn1c([S+](C)[O-])nc(-c2ccc(F)cc2)c1-c1ccnc(NC2CCC(O)CC2)c1 (centres unmarked) [Example 23, 4-{4-[5-(4-Fluoro-phenyl)-2-methanesulfinyl-3-(2-methoxy-ethyl)-3H-imidazol-4-yl]-pyridin-2-ylamino}-cyclohexanol]
The IC50 of the first is higher: 1000 to 10000 nM for the first, under 1000 nM for the second.

First: Cn1c([S+](C)[O-])nc(-c2ccc(F)cc2)c1-c1ccnc(NC2CCC(O)CC2)c1 (centres unmarked) [Example 22, 4-{4-[5-(4-Fluoro-phenyl)-2-methanesulfinyl-3-methyl-3H-imidazol-4-yl]-Pyridin-2-ylamino}-cyclohexanol]
Second: COCCn1c([S+](C)[O-])nc(-c2ccc(F)cc2)c1-c1ccnc(NC2CCCCC2O)c1 (centres unmarked) [Example 25, 2-{4-[5-(4-Fluoro-phenyl)-2-methanesulfinyl-3-(2-methoxy-ethyl)-3H-imidazol-4-yl]-pyridin-2-ylamino}-cyclohexanol]
The IC50 of the first is lower: under 1000 nM for the first, 1000 to 10000 nM for the second. The first is the more potent here.

Compared with `COCCn1c(SC)nc(-c2ccc(F)cc2)c1-c1ccnc(NCC(C)=O)c1` [Example 26, 1-{4-[5-(4-Fluoro-phenyl)-3-(2-methoxy-ethyl)-2-methylsulfanyl-3H-imidazol-4-yl]-pyridin-2-ylamino}-propan-2-one], `COCCn1c(SC)nc(-c2ccc(F)cc2)c1-c1ccnc(NC(=O)C2CCOCC2)c1` [Example 32, Tetrahydro-pyran-4-carboxylic acid {4-[5-(4-fluoro-phenyl)-3-(2-methoxy-ethyl)-2-methylsulfanyl-3H-imidazol-4-yl]-pyridin-2-yl}-amide] is lower in IC50: 1000 to 10000 nM for the first, under 1000 nM for the second.

First: CSc1nc(-c2ccc(F)cc2)c(-c2ccnc(NC3CCC(=O)CC3)c2)n1C [Example 27, 4-{4-[5-(4-Fluoro-phenyl)-3-methyl-2-methylsulfanyl-3H-imidazol-4-yl]-pyridin-2-ylamino}-cyclohexanone]
Second: COCCn1c([S+](C)[O-])nc(-c2ccc(F)cc2)c1-c1ccnc(NC(=O)C2CCOCC2)c1 (centres unmarked) [Example 33, Tetrahydro-pyran-4-carboxylic acid {4-[5-(4-fluoro-phenyl)-2-methanesulfinyl-3-(2-methoxy-ethyl)-3H-imidazol-4-yl]-pyridin-2-yl}-amide]
The IC50 of the first is higher: 1000 to 10000 nM for the first, under 1000 nM for the second.
